In the Kinase Knowledgebase extract (Sharma et al. 2016):

biological target: PIK3CA (human) (UniProt P42336); assay: Enzyme Assay
Sequence (P42336 whole entry, looked up): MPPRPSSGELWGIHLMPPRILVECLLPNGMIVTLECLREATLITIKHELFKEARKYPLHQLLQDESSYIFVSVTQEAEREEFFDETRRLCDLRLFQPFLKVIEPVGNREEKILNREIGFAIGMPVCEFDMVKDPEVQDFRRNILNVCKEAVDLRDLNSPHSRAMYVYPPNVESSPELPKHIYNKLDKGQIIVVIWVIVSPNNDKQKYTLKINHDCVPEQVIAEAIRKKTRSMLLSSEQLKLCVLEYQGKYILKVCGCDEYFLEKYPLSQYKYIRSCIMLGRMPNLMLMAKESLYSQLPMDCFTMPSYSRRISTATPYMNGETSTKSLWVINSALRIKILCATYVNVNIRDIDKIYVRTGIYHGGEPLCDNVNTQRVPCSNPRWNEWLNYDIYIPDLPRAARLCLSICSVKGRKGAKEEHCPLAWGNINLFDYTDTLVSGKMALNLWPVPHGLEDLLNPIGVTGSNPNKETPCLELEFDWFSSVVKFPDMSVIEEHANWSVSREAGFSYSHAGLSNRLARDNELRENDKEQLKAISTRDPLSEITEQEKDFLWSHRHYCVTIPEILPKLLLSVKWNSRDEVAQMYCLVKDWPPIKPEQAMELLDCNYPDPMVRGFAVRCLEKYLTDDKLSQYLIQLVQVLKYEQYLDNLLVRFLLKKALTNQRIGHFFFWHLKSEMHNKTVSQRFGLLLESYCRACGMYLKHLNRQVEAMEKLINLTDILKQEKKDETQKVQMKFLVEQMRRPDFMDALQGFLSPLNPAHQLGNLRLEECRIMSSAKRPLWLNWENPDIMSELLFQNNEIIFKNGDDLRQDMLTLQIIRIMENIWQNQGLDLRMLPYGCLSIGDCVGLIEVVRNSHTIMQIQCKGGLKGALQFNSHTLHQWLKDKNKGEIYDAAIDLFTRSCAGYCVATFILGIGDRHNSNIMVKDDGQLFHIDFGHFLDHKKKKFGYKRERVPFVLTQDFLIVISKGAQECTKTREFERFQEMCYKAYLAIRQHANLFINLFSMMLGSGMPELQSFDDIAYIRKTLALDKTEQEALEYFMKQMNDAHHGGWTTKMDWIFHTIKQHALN

Compound | IC50 [nM]
Cn1c(=O)n(-c2ccc(C(C)(C)C#N)cc2)c2c3cc(-c4ccc(NC(=O)NC5CCOC5)nc4)ccc3ncc21 (stereo unspecified) | 44
COC(=O)Nc1ccc(-c2ccc3ncc4c(c3c2)n(-c2cccc(Cl)c2C)c(=O)n4C)cn1 | 27
C=CC(=O)Nc1ccc(-c2ccc3ncc4c(c3c2)n(-c2cccc(C(F)(F)F)c2)c(=O)n4C)cn1 | 45
CNC(=O)Nc1ccc(-c2ccc3ncc4c(c3c2)n(-c2c(C)cccc2C)c(=O)n4C)cn1 | 107
Cc1ncc(-c2ccc3ncc4c(c3c2)n(-c2ccc(C(C)(C)C#N)cc2)c(=O)n4C)cc1OC(F)F | 133
COC(=O)Nc1cncc(-c2ccc3ncc4c(c3c2)n(-c2cccc(C(F)(F)F)c2)c(=O)n4C)c1 | 146
CCOC(=O)Nc1ccc(-c2ccc3ncc4c(c3c2)n(-c2cccc(C(F)(F)F)c2)c(=O)n4C)cn1 | 103
COC(=O)Nc1ccc(-c2ccc3ncc4c(c3c2)n(-c2ccc(Cl)cc2Cl)c(=O)n4C)cn1 | 85
COCC(=O)Nc1ccc(-c2ccc3ncc4c(c3c2)n(-c2cccc(C(F)(F)F)c2)c(=O)n4C)cn1 | 32
Cc1c(F)cccc1-n1c(=O)n(C)c2cnc3ccc(-c4cncc(OCC#N)c4)cc3c21 | 66
Cn1c(=O)n(-c2ccc(C(C)(C)C#N)cc2)c2c3cc(-c4ccc(NC(=O)C(F)(F)F)nc4)ccc3ncc21 | 33
COC(=O)Nc1ccc(-c2ccc3ncc4c(c3c2)n(-c2ccc(F)c(Cl)c2)c(=O)n4C)cn1 | 94
C#Cc1cncc(-c2ccc3ncc4c(c3c2)n(-c2cccc(C(F)(F)F)c2)c(=O)n4C)c1 | 22
COCCOc1cncc(-c2ccc3ncc4c(c3c2)n(-c2ccc(F)c(C(F)(F)F)c2)c(=O)n4C)c1 | 107
COC(=O)Nc1cncc(-c2ccc3ncc4c(c3c2)n(-c2cccc(Cl)c2C)c(=O)n4C)c1 | 80
COC(=O)Nc1ccc(-c2ccc3ncc4c(c3c2)n(-c2cccc(F)c2C)c(=O)n4C)cn1 | 40

Compound | IC50 [nM]
COC(=O)Nc1ccc(-c2ccc3ncc4c(c3c2)n(-c2cccnc2OC)c(=O)n4C)cn1 | 57
C=CC(=O)Nc1ccc(-c2ccc3ncc4c(c3c2)n(-c2cccc(F)c2C)c(=O)n4C)cn1 | 52
COC(=O)Nc1ccc(-c2ccc3ncc4c(c3c2)n(-c2cccc(C)c2C)c(=O)n4C)cn1 | 31
COCC(=O)Nc1cncc(-c2ccc3ncc4c(c3c2)n(-c2ccc(C(C)(C)C#N)cc2)c(=O)n4C)c1 | 63
COC(=O)Nc1ccc(-c2ccc3ncc4c(c3c2)n(-c2ccc(F)c(C(F)(F)F)c2)c(=O)n4C)cn1 | 25
CNC(=O)Nc1ccc(-c2ccc3ncc4c(c3c2)n(-c2ccc(Cl)cc2Cl)c(=O)n4C)cn1 | 87
COCc1ccc(-c2ccc3ncc4c(c3c2)n(-c2ccc(C(C)(C)C#N)cc2)c(=O)n4C)cn1 | 44
Cn1c(=O)n(-c2ccc(C(C)(C)C#N)cc2)c2c3cc(-c4cncc(OCCF)c4)ccc3ncc21 | 23
COCCOc1cncc(-c2ccc3ncc4c(c3c2)n(-c2ccc(C(C)(C)C#N)cc2)c(=O)n4C)c1 | 76
Cn1c(=O)n(-c2ccc(C(C)(C)C#N)cc2)c2c3cc(-c4cncc(OCC#N)c4)ccc3ncc21 | 22
Cn1c(=O)n(-c2ccc(F)c(Cl)c2)c2c3cc(-c4cncc(OCCF)c4)ccc3ncc21 | 47
COCC(=O)Nc1ccc(-c2ccc3ncc4c(c3c2)n(-c2ccc(F)c(C(F)(F)F)c2)c(=O)n4C)cn1 | 90
COCCOc1cc(-c2ccc3ncc4c(c3c2)n(-c2cccc(C(F)(F)F)c2)c(=O)n4C)cnc1C | 40
Cn1c(=O)n(-c2ccc(C(C)(C)C#N)cc2)c2c3cc(-c4ccc(NC(=O)CC#N)nc4)ccc3ncc21 | 24
Cn1c(=O)n(-c2cccc(C(F)(F)F)c2)c2c3cc(-c4cncc(OCCF)c4)ccc3ncc21 | 115
COC(=O)Nc1ccc(-c2ccc3ncc4c(c3c2)n(-c2ccccc2C)c(=O)n4C)cn1 | 48

Results, then the compound that gave them:

IC50 [nM] | Compound
5 | CNC(=O)Nc1ccc(-c2ccc3ncc4c(c3c2)n(-c2ccc(F)c(C(F)(F)F)c2)c(=O)n4C)cn1
19 | Cn1c(=O)n(-c2ccc(C(C)(C)C#N)cc2)c2c3cc(-c4cncc(OCC(F)(F)F)c4)ccc3ncc21
6 | C#Cc1ccc(-c2ccc3ncc4c(c3c2)n(-c2ccc(C(C)(C)C#N)cc2)c(=O)n4C)cn1
14 | C/C=C/C(=O)Nc1ccc(-c2ccc3ncc4c(c3c2)n(-c2ccc(C(C)(C)C#N)cc2)c(=O)n4C)cn1
18 | Cn1c(=O)n(-c2cccc(C(F)(F)F)c2)c2c3cc(-c4ccc(NC(=O)CC#N)nc4)ccc3ncc21
2 | CNC(=O)Nc1ccc(-c2ccc3ncc4c(c3c2)n(-c2cccc(C(F)(F)F)c2)c(=O)n4C)cn1
18 | COCCOc1cc(-c2ccc3ncc4c(c3c2)n(-c2ccc(C(C)(C)C#N)cc2)c(=O)n4C)cnc1C
19 | CNC(=O)Nc1ccc(-c2ccc3ncc4c(c3c2)n(-c2cccnc2OC)c(=O)n4C)cn1
10 | Cn1c(=O)n(-c2ccc(C(C)(C)C#N)cc2)c2c3cc(-c4cncc(OC(F)F)c4)ccc3ncc21
12 | CNC(=O)Nc1ccc(-c2ccc3ncc4c(c3c2)n(-c2ccccc2C)c(=O)n4C)cn1
22 | Cn1c(=O)n(-c2ccc(C(C)(C)C#N)cc2)c2c3cc(-c4ccc(NC(=O)NCCO)nc4)ccc3ncc21
15 | COC(=O)Nc1ccc(-c2ccc3ncc4c(c3c2)n(-c2cccc(C(F)(F)F)c2C)c(=O)n4C)cn1
14 | Cc1ncc(-c2ccc3ncc4c(c3c2)n(-c2cccc(C(F)(F)F)c2)c(=O)n4C)cc1OCCF
12 | COC(=O)Nc1ccc(-c2ccc3ncc4c(c3c2)n(-c2ccccc2C(F)(F)F)c(=O)n4C)cn1
1 | CNC(=O)Nc1ccc(-c2ccc3ncc4c(c3c2)n(-c2cccc(C(F)(F)F)c2C)c(=O)n4C)cn1
3 | CNC(=O)Nc1ccc(-c2ccc3ncc4c(c3c2)n(-c2cccc(C)c2C)c(=O)n4C)cn1
3 | CNC(=O)Nc1ccc(-c2ccc3ncc4c(c3c2)n(-c2cccc(Cl)c2F)c(=O)n4C)cn1
4 | COC(=O)Nc1ccc(-c2ccc3ncc4c(c3c2)n(-c2cccc(Cl)c2F)c(=O)n4C)cn1
12 | C#Cc1cncc(-c2ccc3ncc4c(c3c2)n(-c2ccc(C(C)(C)C#N)cc2)c(=O)n4C)c1
21 | CNC(=O)Nc1ccc(-c2ccc3ncc4c(c3c2)n(-c2cccc(F)c2)c(=O)n4C)cn1

IC50 [nM] | Compound
16 | COC(=O)Nc1ccc(-c2ccc3ncc4c(c3c2)n(-c2cccc(F)c2Cl)c(=O)n4C)cn1
7 | CNC(=O)Nc1ccc(-c2ccc3ncc4c(c3c2)n(-c2cccc(F)c2C)c(=O)n4C)cn1
5 | Cc1ncc(-c2ccc3ncc4c(c3c2)n(-c2ccc(C(C)(C)C#N)cc2)c(=O)n4C)cc1OCCF
15 | COCC(=O)Nc1ccc(-c2ccc3ncc4c(c3c2)n(-c2ccc(C(C)(C)C#N)cc2)c(=O)n4C)cn1
2.4 | COC(=O)Nc1ccc(-c2ccc3ncc4c(c3c2)n(-c2ccc(C(F)(F)F)nc2C)c(=O)n4C)cn1
6 | COC(=O)Nc1ccc(-c2ccc3ncc4c(c3c2)n(-c2cccc(C(F)(F)F)c2)c(=O)n4C)cn1
12 | CNC(=O)Nc1ccc(-c2ccc3ncc4c(c3c2)n(-c2ccc(F)cc2C)c(=O)n4C)cn1
5 | CNC(=O)Nc1ccc(-c2ccc3ncc4c(c3c2)n(-c2cccc(F)c2Cl)c(=O)n4C)cn1
8 | CNC(=O)Nc1ccc(-c2ccc3ncc4c(c3c2)n(-c2ccc(F)cc2)c(=O)n4C)cn1
3 | CNC(=O)Nc1ccc(-c2ccc3ncc4c(c3c2)n(-c2ccc(N3CCN(C)CC3)c(C(F)(F)F)c2)c(=O)n4C)cn1
4 | CNC(=O)Nc1ccc(-c2ccc3ncc4c(c3c2)n(-c2ccccc2C(F)(F)F)c(=O)n4C)cn1
6 | Cn1c(=O)n(-c2ccc(C(C)(C)C#N)cc2)c2c3cc(-c4ccc(NC(=O)C5CC5)nc4)ccc3ncc21
9 | CNC(=O)Nc1ccc(-c2ccc3ncc4c(c3c2)n(-c2ccc(Cl)cc2C)c(=O)n4C)cn1
5 | C=CC(=O)Nc1ccc(-c2ccc3ncc4c(c3c2)n(-c2ccc(C(C)(C)C#N)cc2)c(=O)n4C)cn1
9 | COC(=O)Nc1cncc(-c2ccc3ncc4c(c3c2)n(-c2ccc(C(C)(C)C#N)cc2)c(=O)n4C)c1
21 | Cc1ncc(-c2ccc3ncc4c(c3c2)n(-c2cccc(F)c2C)c(=O)n4C)cc1OCCF
21 | CNC(=O)Nc1ccc(-c2ccc3ncc4c(c3c2)n(-c2ccc(C(C)(C)C#N)cc2)c(=O)n4C)cn1
19 | Cn1c(=O)n(-c2ccc(C(C)(C)C#N)cc2)c2c3cc(-c4ccc(NC=O)nc4)ccc3ncc21
6 | CNC(=O)Nc1ccc(-c2ccc3ncc4c(c3c2)n(-c2cccc(Cl)c2C)c(=O)n4C)cn1
